Test results from US20260013501A1, “HERBICIDAL DERIVATIVES” (SYNGENTA CROP PROTECTION AG, priority 2022, published 2026).

Experiments:
Type in all cases: in vivo
Details in all cases: evaluated after 13 days
[1] = tested on: Zea mays (ZEAMX); assay: Pre-emergence Test (Table B1), ZEAMX
[2] = tested on: Amaranthus palmeri (AMAPA); assay: Pre-emergence Test (Table B1), AMAPA
[3] = tested on: Amaranthus retoflexus (AMARE); assay: Pre-emergence Test (Table B1), AMARE
[4] = tested on: Zea mays (ZEAMX); assay: Post-emergence Test (Table B2), ZEAMX; set-up: key: 5-point damage scale: 5=81-100%, 4=61-80%, 3=41-60%, 2=21-40%, 1=0-20%
Experimental: Seeds of a variety of test species are sown in standard soil in pots (Ipomoea hederacea (IPOHE), Zea mays (ZEAMX), Echinochloa crus-galli (ECHCG), Amaranthus palmeri (AMAPA), (Amaranthus retoflexus (AMARE), and (Setaria faberi (SETFA)). After 8 days cultivation under controlled conditions in a glasshouse (at 24° C./16° C., day/night; 14 hours light; 65% humidity), the plants are sprayed with an aqueous spray solution derived from the formulation of the technical active ingredient in acetone/water (50:50) solution containing 0.5% Tween 20 (polyoxyethelyene sorbitan monolaurate, CAS RN 9005-64-5). Rate of application is shown in g/ha in the tables below. The test plants are then grown in a glasshouse under controlled conditions in a glasshouse (at 24° C./16° C., day/night; 14 hours light; 65% humidity) and watered twice daily. After 13 days the test is evaluated for the percentage damage caused to the plant. The biological activities are shown in the following table on a five-point scale (5=81-100%; 4=61-80%; 3=41-60%; 2=21-40%; 1=0-20%; -=not tested).

[5] = tested on: Ipomoea hederacea (IPOHE); assay: Pre-emergence Test (Table B1), IPOHE
[6] = tested on: Echinochloa crus-galli (ECHCG); assay: Pre-emergence Test (Table B1), ECHCG

CCn1c(Cc2ccnc(Cl)c2)cc(=O)c(C(=O)O)c1-c1ccc(Cl)c(Cl)c1 [Compound 41, 6-[(2-chloro-4-pyridyl)methyl]-2-(3,4-dichlorophenyl)-1-ethyl-4-oxo-pyridine-3-carboxylic acid]
0: Pre-emergence Test, percentage damage caused to the plant (five-point scale), ZEAMX ([1]; Rate 250 g/Ha) | Pre-emergence Test, percentage damage caused to the plant (five-point scale), AMAPA ([2]; Rate 250 g/Ha) | Pre-emergence Test, percentage damage caused to the plant (five-point scale), AMARE ([3]; Rate 250 g/Ha) | percentage damage caused to the plant, ZEAMX ([4]; rate 250 g/Ha)

CCn1c(Cc2cc(F)cc(F)c2)cc(=O)c(C(=O)O)c1-c1ccc(Cl)c(Cl)c1 [Compound 29, 2-(3,4-dichlorophenyl)-6-[(3,5-difluorophenyl)methyl]-1-ethyl-4-oxo-pyridine-3-carboxylic acid]
0: Pre-emergence Test, percentage damage caused to the plant (five-point scale), ZEAMX ([1]; Rate 1000 g/Ha) | Pre-emergence Test, percentage damage caused to the plant (five-point scale), AMAPA ([2]; Rate 1000 g/Ha) | Pre-emergence Test, percentage damage caused to the plant (five-point scale), AMARE ([3]; Rate 1000 g/Ha) | percentage damage caused to the plant, ZEAMX ([4]; rate 1000 g/Ha)

CCn1c(Cc2ccc(OC(F)(F)F)cc2C)cc(=O)c(C(=O)O)c1-c1ccc(Cl)c(Cl)c1 [Compound 63, 2-(3,4-dichlorophenyl)-1-ethyl-6-[[2-methyl-4-(trifluoromethoxy)phenyl]methyl]-4-oxo-pyridine-3-carboxylic acid]
0: Pre-emergence Test, percentage damage caused to the plant (five-point scale), IPOHE ([5]; Rate 1000 g/Ha) | Pre-emergence Test, percentage damage caused to the plant (five-point scale), ZEAMX ([1]; Rate 1000 g/Ha) | Pre-emergence Test, percentage damage caused to the plant (five-point scale), AMAPA ([2]; Rate 1000 g/Ha) | Pre-emergence Test, percentage damage caused to the plant (five-point scale), AMARE ([3]; Rate 1000 g/Ha)

CCn1c(Cc2cccc(F)c2)cc(=O)c(C(=O)O)c1-c1ccc(Cl)c(Cl)c1 [Compound 37, 2-(3,4-dichlorophenyl)-1-ethyl 6-[(3-fluorophenyl)methyl]-4-oxo-pyridine-3-carboxylic acid]
0: Pre-emergence Test, percentage damage caused to the plant (five-point scale), IPOHE ([5]; Rate 1000 g/Ha) | Pre-emergence Test, percentage damage caused to the plant (five-point scale), ZEAMX ([1]; Rate 1000 g/Ha) | Pre-emergence Test, percentage damage caused to the plant (five-point scale), AMAPA ([2]; Rate 1000 g/Ha) | Pre-emergence Test, percentage damage caused to the plant (five-point scale), AMARE ([3]; Rate 1000 g/Ha) | percentage damage caused to the plant, ZEAMX ([4]; rate 1000 g/Ha)

CCn1c(Cc2ccc(C(F)F)nn2)cc(=O)c(C(=O)O)c1-c1ccc(Cl)c(Cl)c1 [Compound 108, 2-(3,4-dichlorophenyl)-6-[[6-(difluoromethyl)-pyridazin-3-yl]methyl]-1-ethyl-4-oxo-pyridine-3-carboxylic acid]
0: Pre-emergence Test, percentage damage caused to the plant (five-point scale), ZEAMX ([1]; Rate 1000 g/Ha) | Pre-emergence Test, percentage damage caused to the plant (five-point scale), AMAPA ([2]; Rate 1000 g/Ha) | Pre-emergence Test, percentage damage caused to the plant (five-point scale), AMARE ([3]; Rate 1000 g/Ha)

CCn1c(Cc2ccc(SC)cc2)cc(=O)c(C(=O)O)c1-c1ccc(Cl)c(Cl)c1 [Compound 28, 2-(3,4-dichlorophenyl)-1-ethyl-6-[(4-methylsulfanylphenyl)methyl]-4-oxo-pyridine-3-carboxylic acid]
0: Pre-emergence Test, percentage damage caused to the plant (five-point scale), IPOHE ([5]; Rate 1000 g/Ha) | Pre-emergence Test, percentage damage caused to the plant (five-point scale), ZEAMX ([1]; Rate 1000 g/Ha) | Pre-emergence Test, percentage damage caused to the plant (five-point scale), AMAPA ([2]; Rate 1000 g/Ha) | Pre-emergence Test, percentage damage caused to the plant (five-point scale), AMARE ([3]; Rate 1000 g/Ha) | percentage damage caused to the plant, ZEAMX ([4]; rate 1000 g/Ha)

CCn1c(Cc2ccc(F)c(OC)c2)cc(=O)c(C(=O)O)c1-c1ccc(Cl)c(Cl)c1 [Compound 95, 2-(3,4-dichlorophenyl)-1-ethyl-6-[(4-fluoro-3-methoxy-phenyl)methyl]-4-oxo-pyridine-3-carboxylic acid]
0: Pre-emergence Test, percentage damage caused to the plant (five-point scale), ZEAMX ([1]; Rate 1000 g/Ha) | Pre-emergence Test, percentage damage caused to the plant (five-point scale), AMAPA ([2]; Rate 1000 g/Ha) | Pre-emergence Test, percentage damage caused to the plant (five-point scale), AMARE ([3]; Rate 1000 g/Ha)

CCOC(=O)c1cccc(Cc2cc(=O)c(C(=O)O)c(-c3ccc(Cl)c(Cl)c3)n2CC)n1 [Compound 102, 2-(3,4-dichlorophenyl)-6-[(6-ethoxycarbonylpyridin-1-ium-2-yl)methyl]-1-ehtyl-4-oxo-pyridine-3-carboxylic acid; 2,2,2-trifluoroacetate]
0: Pre-emergence Test, percentage damage caused to the plant (five-point scale), IPOHE ([5]; Rate 1000 g/Ha) | Pre-emergence Test, percentage damage caused to the plant (five-point scale), ZEAMX ([1]; Rate 1000 g/Ha) | Pre-emergence Test, percentage damage caused to the plant (five-point scale), AMAPA ([2]; Rate 1000 g/Ha) | Pre-emergence Test, percentage damage caused to the plant (five-point scale), AMARE ([3]; Rate 1000 g/Ha) | percentage damage caused to the plant, ZEAMX ([4]; rate 1000 g/Ha)

CCn1c(Cc2cc(C(F)(F)F)ccn2)cc(=O)c(C(=O)O)c1-c1ccc(Cl)c(Cl)c1 [Compound 18, 2-(3,4-dichlorophenyl)-1-ethyl-4-oxo-6-[[4-(trifluoromethyl)-2-pyridyl]methyl]pyridine-3-carboxylic acid]
0: Pre-emergence Test, percentage damage caused to the plant (five-point scale), ECHCG ([6]; Rate 1000 g/Ha)

CCn1c(Cc2csnc2C)cc(=O)c(C(=O)O)c1-c1ccc(Cl)c(Cl)c1 [Compound 150, 2-(3,4-dichlorophenyl)-1-ethyl-6-[(3-methylisothiazol-4-yl)methyl]-4-oxo-pyridine-3-carboxylic acid]
0: Pre-emergence Test, percentage damage caused to the plant (five-point scale), IPOHE ([5]; Rate 250 g/Ha) | Pre-emergence Test, percentage damage caused to the plant (five-point scale), ZEAMX ([1]; Rate 250 g/Ha) | percentage damage caused to the plant, ZEAMX ([4]; rate 250 g/Ha)

CCn1c(Cc2nccnc2C(=O)O)cc(=O)c(C(=O)O)c1-c1ccc(Cl)c(Cl)c1 [Compound 49, 3-[[5-carboxy-6-(3,4-dichlorophenyl)-1-ethyl-4-oxo-2-pyridyl]methyl]pyrazine-2-carboxylic acid]
0: Pre-emergence Test, percentage damage caused to the plant (five-point scale), IPOHE ([5]; Rate 250 g/Ha) | Pre-emergence Test, percentage damage caused to the plant (five-point scale), ZEAMX ([1]; Rate 250 g/Ha) | Pre-emergence Test, percentage damage caused to the plant (five-point scale), AMARE ([3]; Rate 250 g/Ha)

CCn1c(Cc2cc(C#N)ccn2)cc(=O)c(C(=O)O)c1-c1ccc(Cl)c(Cl)c1 [Compound 111, 6-[(4-cyano-2-pyridyl)methyl]-2-(3,4-dichlorophenyl)-1-ethyl-4-oxo-pyridine-3-carboxylic acid]
0: Pre-emergence Test, percentage damage caused to the plant (five-point scale), ECHCG ([6]; Rate 250 g/Ha)

CCn1c(Cc2ccc(OC)c(F)c2)cc(=O)c(C(=O)O)c1-c1ccc(Cl)c(Cl)c1 [Compound 83, 2-(3,4-dichlorophenyl)-1-ethyl-6-[(3-fluoro-4-methoxy-phenyl)methyl]-4-oxo-pyridine-3-carboxylic acid]
0: Pre-emergence Test, percentage damage caused to the plant (five-point scale), IPOHE ([5]; Rate 1000 g/Ha) | Pre-emergence Test, percentage damage caused to the plant (five-point scale), ZEAMX ([1]; Rate 1000 g/Ha) | Pre-emergence Test, percentage damage caused to the plant (five-point scale), AMAPA ([2]; Rate 1000 g/Ha) | Pre-emergence Test, percentage damage caused to the plant (five-point scale), AMARE ([3]; Rate 1000 g/Ha)

CCn1c(Cc2ccc(F)cc2)cc(=O)c(C(=O)O)c1-c1ccc(Cl)c(Cl)c1 [Compound 12, 2-(3,4-dichlorophenyl)-1-ethyl-6-[(4-fluorophenyl)methyl]-4-oxo-pyridine-3-carboxylic acid]
0: Pre-emergence Test, percentage damage caused to the plant (five-point scale), AMARE ([3]; Rate 1000 g/Ha) | percentage damage caused to the plant, ZEAMX ([4]; rate 1000 g/Ha)

CCn1c(Cc2cc(C)ncn2)cc(=O)c(C(=O)O)c1-c1ccc(Cl)c(Cl)c1 [Compound 128, 2-(3,4-dichlorophenyl)-1-ethyl-6-[(6-methylpyrimidin-4-yl)methyl]-4-oxo-pyridine-3-carboxylic acid]
0: Pre-emergence Test, percentage damage caused to the plant (five-point scale), ZEAMX ([1]; Rate 250 g/Ha) | Pre-emergence Test, percentage damage caused to the plant (five-point scale), ECHCG ([6]; Rate 250 g/Ha) | percentage damage caused to the plant, ZEAMX ([4]; rate 250 g/Ha)

CCn1c(Cc2ccn(C(F)F)n2)cc(=O)c(C(=O)O)c1-c1ccc(Cl)c(Cl)c1 [Compound 124, 2-(3,4-dichlorophenyl)-6-[[1-(difluoromethyl)pyrazol-3-yl]methyl]-1-ethyl-4-oxo-pyridine-3-carboxylic acid]
0: Pre-emergence Test, percentage damage caused to the plant (five-point scale), ZEAMX ([1]; Rate 62.5 g/Ha) | Pre-emergence Test, percentage damage caused to the plant (five-point scale), AMAPA ([2]; Rate 62.5 g/Ha) | Pre-emergence Test, percentage damage caused to the plant (five-point scale), AMARE ([3]; Rate 62.5 g/Ha)

CCn1c(Cc2ccsc2)cc(=O)c(C(=O)O)c1-c1ccc(Cl)c(Cl)c1 [Compound 51, 2-(3,4-dichlorophenyl)-1-ethyl-4-oxo-6-(3-thienylmethyl) pyridine-3-carboxylic acid]
0: Pre-emergence Test, percentage damage caused to the plant (five-point scale), IPOHE ([5]; Rate 1000 g/Ha) | Pre-emergence Test, percentage damage caused to the plant (five-point scale), ZEAMX ([1]; Rate 1000 g/Ha) | Pre-emergence Test, percentage damage caused to the plant (five-point scale), AMAPA ([2]; Rate 1000 g/Ha) | Pre-emergence Test, percentage damage caused to the plant (five-point scale), AMARE ([3]; Rate 1000 g/Ha)

CCn1c(Cc2cc(COC)cc(Cl)n2)cc(=O)c(C(=O)O)c1-c1ccc(Cl)c(Cl)c1 [Compound 103, 6-[[6-chloro-4-(methoxymethyl)-2-pyridyl]methyl]-2-(3,4-dichlorophenyl)-1-ethyl-4-oxo-pyridine-3-carboxylic acid]
0: Pre-emergence Test, percentage damage caused to the plant (five-point scale), IPOHE ([5]; Rate 1000 g/Ha) | Pre-emergence Test, percentage damage caused to the plant (five-point scale), ZEAMX ([1]; Rate 1000 g/Ha) | Pre-emergence Test, percentage damage caused to the plant (five-point scale), AMAPA ([2]; Rate 1000 g/Ha) | Pre-emergence Test, percentage damage caused to the plant (five-point scale), AMARE ([3]; Rate 1000 g/Ha)
